Patent US5254535A, “Composition and treatment with biologically active peptides and antibiotic” (priority 1989, dated 1993)
No end group written: not given here.

What was measured:
Type in all cases: cell-based
[1] = tested on: E. coli; experiment: MIC of peptide alone or with 20% of antibiotic MIC, procedure of Example 1; details: for MIC of antibiotic: antibiotic alone against E. coli; for MIC Peptide alone / MIC Peptide and Ampicillin / MIC Peptide with Aztreonam / MIC Peptide with Bacitracin / MIC Peptide and Benzyl penicillin: E. coli; for MIC Peptide and Ampicillin: peptide plus 20% of the MIC of ampicillin; for MIC Peptide and Ampicillin / MIC Peptide and Benzyl penicillin: Table 4; for MIC Peptide with Aztreonam: peptide plus 20% of the MIC of aztreonam, Table 5; for MIC Peptide with Bacitracin: peptide plus 20% of the MIC of bacitracin, Table 2; for MIC Peptide and Benzyl penicillin: peptide plus 20% of the MIC of benzyl penicillin
Procedure: (§1) S. aureus organisms are grown to mid log phase, and then diluted to 10^3 organisms/ml in 1/2 strength trypticase soy broth. After the incubation of the organisms, the minimal inhibitory concentration in ug/ml for Z-52 MG-2(amide-terminated), PGLa, CPF Z-50, A-97, Magainin II, and Z-74 peptides, against S. aureus was measured when each peptide was added alone to the organisms. "MG-2 (amide)" is amide-terminated Magainin II, and "Magainin II" is carboxy-terminated Magainin II. A-97 peptide is of the following structure:
(§2) The minimal inhibitory concentration (MIC) for each peptide was then measured when 20% of the minimal inhibitory concentration of bacitracin, tobramycin or gentamicin, respecitvely, is added to the organisms along with the peptide. The gentamicin employed is a mixture of Gentamicin C1, Gentamicin C1a, and Gentamicin C2. […] CPF Z-50 peptide has structure number (8) of the CPF peptides hereinabove described. Z-52 peptide is of the structure (ALSK)6 NH2. The minimal inhibitory concentrations are given below in Table I.
E. coli organisms were incubated according to the procedure described in Example 1. After the incubation, the minimal inhibitory concentrations against E. coli of each of the peptides described in Example 1 alone, as well as of each peptide when employed in combination with 20% of the MIC for bactracin, were then measured.
(§3) In this example, E. coli or P. aeruginosa organisms were incubated according to the procedure described in Example 1. After, the incubation, the minimal inhibitory concentrations of the peptides hereinabove described alone, as well as the peptides in combination with 20% of the minimal inhibitory concentrations (MIC) of benzyl penicillin or ampicillin, were then measured. […]
(§4) E. coli and P. aeruoginosa organisms were incubated according to the procedure described in Example 1. After the incubation, the minimal inhibitory concentrations of the peptides hereinabove described alone, as well as the peptides in combination with 20% of the MIC of the monobactam antibiotic aztreonam, were then measured. The MIC of aztreonam against E. coli is a 2 μg/ml, and against P. aeruginosa is 8 μg/ml.

[2] = tested on: P. aeruginosa; experiment: as above; details: for MIC of antibiotic: antibiotic alone against P. aeruginosa; for MIC Peptide with Aztreonam: peptide plus 20% of the MIC of aztreonam, Table 5; for MIC Peptide with Bacitracin: peptide plus 20% of the MIC of bacitracin, Table 3
Procedure: as §1, §2
In this example, P. aeruginosa organisms were incubated according to the procedure described in Example 1. After the incubation, the minimal inhibitory concentrations of the peptides hereinabove described alone, as well as the peptides in combination with 20% of the MIC of bacitracin, were then measured.
as §3, §4

[3] = tested on: S. aureus; experiment: as above; details: for MIC of antibiotic: antibiotic alone against S. aureus; for MIC Peptide alone / MIC With Added Antibiotic Bacitracin / MIC With Added Antibiotic Gentamicin / MIC With Added Antibiotic Tobramycin: S. aureus; for MIC Peptide alone: Table I; for MIC With Added Antibiotic Bacitracin: peptide plus 20% of the MIC of bacitracin; for MIC With Added Antibiotic Gentamicin: peptide plus 20% of the MIC of gentamicin; for MIC With Added Antibiotic Tobramycin: peptide plus 20% of the MIC of tobramycin
Procedure: as §1, §2

[4] = tested on: P. aeruginosa; experiment: MIC of peptide with or without 10 μg/ml erythromycin, Example 6
Procedure: (§5) For each of the organisms listed in Table 6 below, 10^5 organisms were mid-log inoculated into 200 ml of one-half strength trypticase soy broth. The organisms were incubated for 15 hrs. at 37° C. […] The minimal inhibitory concentrations in μg/ml are given below in Table 6. […] K. pneumoniae, P. aeruginosa, and E. coli are Gram-negative bacteria.

[5] = tested on: K. pneumoniae; experiment: as above
Procedure: as §5

[6] = tested on: E. coli; experiment: as above
Procedure: as §5

[7] = tested on: S. aureus; experiment: Erythromycin and peptide against S. aureus, Example 6
Procedure: For each of the organisms listed in Table 6 below, 10^5 organisms were mid-log inoculated into 200 ml of one-half strength trypticase soy broth. The organisms were incubated for 15 hrs. at 37° C. […] K. pneumoniae, P. aeruginosa, and E. coli are Gram-negative bacteria.

[8] = peptide with erythromycin 10 μg/ml (+)
[9] = peptide, no erythromycin added (-)
[10] = P. aeruginosa, Example 3, Table 3
[11] = P. aeruginosa, Example 5, Table 5

Compound | MIC of antibiotic [1] [µg/mL] | MIC of antibiotic [2] [µg/mL] | MIC of antibiotic [3] [µg/mL] | MIC Peptide alone ([1]; Example 2, Table 2) [µg/mL] | MIC Peptide alone ([1]; Example 4, Table 4) [µg/mL] | MIC Peptide alone ([1]; Example 5, Table 5) [µg/mL] | MIC Peptide and Ampicillin [1] [µg/mL] | MIC Peptide with Aztreonam [1] [µg/mL] | MIC Peptide with Bacitracin [1] [µg/mL] | MIC Peptide alone [2, 10] [µg/mL] | MIC Peptide alone [2, 11] [µg/mL] | MIC Peptide with Aztreonam ([2]; P. aeruginosa) [µg/mL] | MIC Peptide with Bacitracin ([2]; P. aeruginosa) [µg/mL] | MIC Peptide alone [3] [µg/mL] | MIC With Added Antibiotic Bacitracin [3] [µg/mL] | MIC With Added Antibiotic Gentamicin [3] [µg/mL] | MIC With Added Antibiotic Tobramycin [3] [µg/mL] | also measured
CC1(C)S[C@@H]2[C@H](NC(=O)Cc3ccccc3)C(=O)N2[C@H]1C(=O)O [benzyl penicillin, reference compound] | 64 | – | – | – | – | – | – | – | – | – | – | – | – | – | – | – | – | –
bacitracin [reference compound] | 64 | > 256 | 2 | – | – | – | – | – | – | – | – | – | – | – | – | – | – | –
C[C@H]1[C@H](NC(=O)/C(=N\OC(C)(C)C(=O)O)c2csc(N)n2)C(=O)N1S(=O)(=O)O [aztreonam, reference compound] | 2 | 8 | – | – | – | – | – | – | – | – | – | – | – | – | – | – | – | –
CC1(C)S[C@@H]2[C@H](NC(=O)[C@H](N)c3ccccc3)C(=O)N2[C@H]1C(=O)O [ampicillin, alpha-amino-benzyl penicillin, reference compound] | 4 | – | – | – | – | – | – | – | – | – | – | – | – | – | – | – | – | –
NC[C@H]1O[C@H](O[C@H]2[C@H](O)[C@@H](O[C@H]3O[C@H](CO)[C@@H](O)[C@H](N)[C@H]3O)[C@H](N)C[C@@H]2N)[C@H](N)C[C@@H]1O [tobramycin, Tobramycin, reference compound] | 2 | 128 | > 256 | – | – | – | – | – | – | – | – | – | – | – | – | – | – | –
GIGKFLHSAKKFGKAFVGEIMNS-NH2 [MG-2 amide] | – | – | – | 16 | 64 | 64 | 8 | 32 | 4 | 128 | 128 | 64 | 8 | 256 | 32 | 4 | 32 | Minimal Inhibitory Concentration [4, 8]: < 5.0 µg/mL; Minimal Inhibitory Concentration [4, 9]: 50 to 100 µg/mL; Minimal Inhibitory Concentration [5, 8]: < 0.5 µg/mL; Minimal Inhibitory Concentration [5, 9]: 5 µg/mL; Minimal Inhibitory Concentration [6, 8]: 0.5 µg/mL; Minimal Inhibitory Concentration [6, 9]: 5 µg/mL; MIC Peptide and Benzyl penicillin [1]: 32 µg/mL; MIC Peptide alone ([2]; P. aeruginosa, Example 4, Table 4): 256 µg/mL; MIC Peptide and Ampicillin ([2]; P. aeruginosa, peptide plus 20% of the MIC of ampicillin, Table 4): 128 µg/mL; MIC Peptide and Benzyl penicillin ([2]; P. aeruginosa, peptide plus 20% of the MIC of benzyl penicillin, Table 4): 128 µg/mL; activity of combination against S. aureus ([7]; 10 μg/ml of amide-terminated Magainin II and 0.03 μg/ml of erythromycin): effective biological activity; concentration required for effective biological activity ([7]; S. aureus, substance alone): greater than 250 μg/ml
GFASFLGKALKAALKIGANLLGGTPQQ [Peptide Z-50, structure number (8) of the CPF peptides] | – | – | – | 16 | 32 | 32 | 8 | 8 | 16 | 32 | 64 | 32 | 4 | 16 | 16 | 2 | 8 | Minimal Inhibitory Concentration [4, 8]: < 0.5 µg/mL; Minimal Inhibitory Concentration [4, 9]: < 5.0 µg/mL; Minimal Inhibitory Concentration [5, 8]: < 0.5 µg/mL; Minimal Inhibitory Concentration [5, 9]: < 0.5 µg/mL; Minimal Inhibitory Concentration [6, 8]: < 0.5 µg/mL; Minimal Inhibitory Concentration [6, 9]: < 5.0 µg/mL
CC[C@H]1OC(=O)[C@H](C)[C@@H](O[C@H]2C[C@@](C)(OC)[C@@H](O)[C@H](C)O2)[C@H](C)[C@@H](O[C@@H]2O[C@H](C)C[C@H](N(C)C)[C@H]2O)[C@](C)(O)C[C@@H](C)C(=O)[C@H](C)[C@@H](O)[C@]1(C)O [Erythromycin, reference compound] | – | – | – | – | – | – | – | – | – | – | – | – | – | – | – | – | – | Minimal Inhibitory Concentration ([4]; erythromycin alone): > 100 µg/mL; Minimal Inhibitory Concentration ([5]; erythromycin alone): > 100 µg/mL; Minimal Inhibitory Concentration ([6]; erythromycin alone): > 100 µg/mL
gentamicin [reference compound] | 2 | > 256 | 256 | – | – | – | – | – | – | – | – | – | – | – | – | – | – | –
GIGKFLHSAKKFGKAFVGEIMNS [Magainin II] | – | – | – | 32 | 64 | 64 | 16 | 16 | 8 | 256 | 256 | 128 | 16 | 256 | 128 | 4 | 32 | MIC Peptide and Benzyl penicillin [1]: 32 µg/mL
